# Experimental data: patent US12697337B2, “Solid dispersions” (InventisBio Co., Ltd., priority 2021, dated 2026)
# Legend:
# [1] = 1-week stability evaluation of SDD; format: physicochemical; settings: for Appearance / Purity (%) / XRPD: 1 week; for Initial purity (%): before storage
# Method: A brief description of the methods used for PLM, XRPD, Purity and mDSC analysis of the above SDD samples is shown below. • PLM analysis of the SDD samples were conducted using Nikon LV100POL equipped with 5 megapixel CCD, with the physical lens set at 20×. • For XRPD analysis, samples were spread onto the Si-substrate for XRPD test using the parameters as below: Tube: Cu: K-Alpha (λ=1.5418 Å); Generator: Voltage: 40 kV; Current: 40 mA; Scan Scope: 2 or 3 to 40 deg; Time/step(s) 0.06 s; Total time(s) 120 s or 117.36 s. • For mDSC analysis, SDD powders were weighed into Tzero aluminum sample pan from TA Instruments covered by pinhole lid for mDSC test using the parameters as below: Start temperature at 30° C.; Modulate +/−1° C. every 60 seconds; Ramp 2° C./min to 300° C. • The UPLC method used for the assay and purity analysis above is UPLC Method 1, which is shown below:
# Appropriate quantity of SDDs and crystalline Compound 1 (Form B) were placed into 40-mL vials respectively.
# The samples (closed) were covered by plastic cap tightly and sealed by parafilm and samples (open) were just covered by aluminum foil with pinholes. Then they were stored at 2-8° C., 25° C./60% RH and 40° C./75% RH stability chamber respectively for 1 week. The samples were analyzed by XRPD to check the physical stability, and meanwhile dissolved with diluent for UPLC analysis (UPLC Method 1) to check the chemical stability.
# [2] = Dissolution evaluation in FaSSIF medium; format: physicochemical
# Method: Dissolution evaluation in FaSSIF medium: To evaluate in-vitro release performance of SDDs, dissolution in FaSSIF (pH=6.5±0.05) was performed, and the crystalline Compound 1 (Form B) was also tested as control.
# Appropriate amount of Compound 1 or SDD (SDD-0 to SDD-8) was weighed into 40-mL glass vials respectively, and then added 10 mL of FaSSIF medium to a target API concentration of 1 mg/mL, followed by hand shake to suspend well. Place the glass bottle on 37° C. hot-stage by stirring magnetically at 200 rpm. At each time point of 10 min, 20 min, 40 min, 60 min and 120 min, 500 μL suspension was pipetted respectively and centrifuged (14,000 rpm, 3 min) to isolate supernatant and dilute with diluent for UPLC analysis. Finally, the pH value of solution (120 min) were measured by pH meter.
# The UPLC method used for the dissolution analysis above is UPLC Method 2, which is shown below: […]
# [3] = Solid state stability of Form B; format: physicochemical; settings: for Purity-7 d (Area %): open, 7 days
# Method: Solid State Stability of Form B: About 10 mg of Form B was open placed at 40° C./75% RH and 60° C. for 7 days and at 25° C./92.5% RH for 10 days, respectively. Prepare samples in duplicate (n =2) per condition. The solids were analyzed by XRPD and HPLC (only for 40° C./75% RH and 60° C.).
# [4] = PCT/CN2020/137276 and PCT/CN2019/126230; cited from earlier work
# [5] = Dynamic moisture sorption analysis (DVS); format: physicochemical
# Method: Dynamic Moisture Sorption Analysis (DVS)
# Small scale up of Form B: Form B was small scaled up for DVS analysis, solubility and stability studies. 103.02 mg of Compound 1 in Form A was dissolved in 5 mL of MeOH (48V) at RT. After filtration, 10 mL of water was added into the filtrate. Precipitation occurred quickly. The suspension was kept stirring at RT for about 2 hours. Solid samples were collected by filtration, dried under vacuum at 50° C. overnight. 94.16 mg solid was obtained with a yield of 91%. This solid was used for the DVS testing.
# various cancers = settings: as described in previous applications; cited from earlier work
# [6] = pKa measurement of Compound 1; format: physicochemical; settings: measured pKa; free base
# Excerpt: Compound 1 has a measured pKa of around 1 and typically exists in a free base form. Unless otherwise explicitly stated to the contrary, Compound 1 herein should be understood as existing in its free base form as opposed to a salt formed with an acid or base. The synthesis and utility of Compound 1 has been described in Applicant's previous applications, such as International Application Nos. PCT/CN2020/091274, filed May 20, 2020, published as WO2020/233592, PCT/CN2020/137276, filed Dec. 17, 2020, and PCT/CN2019/126230, filed Dec. 18, 2019, the contents of each of which are herein incorporated by reference in their entireties. […] PCT/CN2020/137276 and PCT/CN2019/126230 also describe various isolated forms, substantially pure forms, and/or solid forms of Compound 1 and their preparation methods.
# KRAS G12C = KRAS G12C (Homo sapiens, UniProt P01116, G12C); settings: as described in previous applications; cited from earlier work
# Sequence of KRAS G12C (P01116 1-188 isoform P01116-2 G12C): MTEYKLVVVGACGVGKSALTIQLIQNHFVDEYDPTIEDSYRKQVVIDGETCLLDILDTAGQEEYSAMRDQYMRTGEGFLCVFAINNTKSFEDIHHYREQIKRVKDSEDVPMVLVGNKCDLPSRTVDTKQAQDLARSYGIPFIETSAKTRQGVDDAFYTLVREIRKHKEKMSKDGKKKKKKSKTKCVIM
# [7] = Table 6, FaSSIF (10 mL) pH 6.5, 37° C., target API 1 mg/mL
# [8] = Table 11, FaSSIF (10 mL) pH 6.5
smiles,measurement,setting,value
C=CC(=O)N1C[C@H](C)N(c2nc(=O)n(-c3c(C4CC4)ncnc3C3CC3)c3nc(-c4c(N)cccc4F)c(F)cc23)C[C@H]1C [Compound 1 (Form B)],Appearance,"[1]; Table 8, 2-8° C., closed",Yellow powder
same,Purity (%),"[1]; Table 8, 2-8° C., closed",98.81%
same,XRPD,"[1]; Table 8, 2-8° C., closed",Crystal
same,Appearance,"[1]; Table 8, 25° C./60% RH, open",Yellow powder
same,Purity (%),"[1]; Table 8, 25° C./60% RH, open",98.86%
same,XRPD,"[1]; Table 8, 25° C./60% RH, open",Crystal
same,Appearance,"[1]; Table 8, 40° C./75% RH, open",Yellow powder
same,Purity (%),"[1]; Table 8, 40° C./75% RH, open",98.79%
same,XRPD,"[1]; Table 8, 40° C./75% RH, open",Crystal
same,Initial purity (%),[1]; Table 8,98.75%
same,Appearance,"[1]; Table 12, 2-8° C., closed",Yellow powder
same,Purity (%),"[1]; Table 12, 2-8° C., closed",98.81%
same,XRPD,"[1]; Table 12, 2-8° C., closed",Crystal
same,Appearance,"[1]; Table 12, 25° C./60% RH, open",Yellow powder
same,Purity (%),"[1]; Table 12, 25° C./60% RH, open",98.86%
same,XRPD,"[1]; Table 12, 25° C./60% RH, open",Crystal
same,Appearance,"[1]; Table 12, 40° C./75% RH, open",Yellow powder
same,Purity (%),"[1]; Table 12, 40° C./75% RH, open",98.79%
same,XRPD,"[1]; Table 12, 40° C./75% RH, open",Crystal
same,Initial purity (%),[1]; Table 12,98.75%
same,"API concentration in dissolution medium, 10 min",[2]; [7],12.5 µg/mL
same,"API concentration in dissolution medium, 20 min",[2]; [7],13.8 µg/mL
same,"API concentration in dissolution medium, 40 min",[2]; [7],15.0 µg/mL
same,"API concentration in dissolution medium, 60 min",[2]; [7],15.5 µg/mL
same,"API concentration in dissolution medium, 120 min",[2]; [7],15.9 µg/mL
same,pH,"[2]; Table 6, pH value of solution at 120 min of FaSSIF dissolution",6.42
same,"API concentration in dissolution medium, 10 min",[2]; [8],10.8 µg/mL
same,"API concentration in dissolution medium, 20 min",[2]; [8],12.5 µg/mL
same,"API concentration in dissolution medium, 40 min",[2]; [8],14.3 µg/mL
same,"API concentration in dissolution medium, 60 min",[2]; [8],14.2 µg/mL
same,"API concentration in dissolution medium, 120 min",[2]; [8],14.9 µg/mL
same,pH,"[2]; Table 11, pH of solution after FaSSIF dissolution",6.41
same,"API concentration in dissolution medium, 10 min","[2]; Table 15, FaSSIF (10 mL)",8.1 µg/mL
same,"API concentration in dissolution medium, 20 min","[2]; Table 15, FaSSIF (10 mL)",8.4 µg/mL
same,"API concentration in dissolution medium, 40 min","[2]; Table 15, FaSSIF (10 mL)",9.0 µg/mL
same,"API concentration in dissolution medium, 60 min","[2]; Table 15, FaSSIF (10 mL)",9.1 µg/mL
same,"API concentration in dissolution medium, 120 min","[2]; Table 15, FaSSIF (10 mL)",9.7 µg/mL
same,pH,"[2]; Table 15, pH of solution after FaSSIF dissolution",6.48
same,XRPD,"[3]; 25° C./92.5% RH, after 10 d",Unchanged
same,chemical stability,[3]; 40° C./75% RH for 7 days,chemically stable
same,XRPD,"[3]; 40° C./75% RH, after 7 d",Unchanged
same,Purity-7 d (Area %),[3]; 40° C./75% RH,98.97 Area %
same,purity decrease,[3]; 60° C. for 7 days,0.16%
same,XRPD,"[3]; 60° C., after 7 d",Unchanged
same,Purity-7 d (Area %),[3]; 60° C.,98.82 Area %
same,physical stability,"[3]; at test conditions (40° C./75% RH, 60° C., 25° C./92.5% RH)",physically stable
same,Initial Purity (Area %),[3]; before storage,98.98 Area %
same,"relative stability among crystalline Forms A, B, C, D",[4],more stable crystalline form
same,water absorbed (DVS),"[5]; 0-80% RH, 25° C.",~ 0.84%
same,crystal form after DVS testing,[5]; XRPD after DVS,without changing of crystal form
C=CC(=O)N1C[C@H](C)N(c2nc(=O)n(-c3c(C4CC4)ncnc3C3CC3)c3nc(-c4c(N)cccc4F)c(F)cc23)C[C@H]1C [Compound 1],efficacy in in vivo mouse models,various cancers,effective in treating various cancers
same,pKa,[6],~1
same,KRAS G12C inhibition,KRAS G12C,potent KRAS G12C inhibitor
